Counter-ions that a name gives are not always drawn. Like-named read-outs stand apart in the source and are kept apart here.
Columns and labels:
[1] = target: T1, FAAH (Homo sapiens, UniProt O00519); assay: Assay Method 1: FAAH assay, 3H-anandamide hydrolysis in homogenate of T84 cells or SK-N-MC cells transfected with human FAAH
T1 sequence (O00519 1-579): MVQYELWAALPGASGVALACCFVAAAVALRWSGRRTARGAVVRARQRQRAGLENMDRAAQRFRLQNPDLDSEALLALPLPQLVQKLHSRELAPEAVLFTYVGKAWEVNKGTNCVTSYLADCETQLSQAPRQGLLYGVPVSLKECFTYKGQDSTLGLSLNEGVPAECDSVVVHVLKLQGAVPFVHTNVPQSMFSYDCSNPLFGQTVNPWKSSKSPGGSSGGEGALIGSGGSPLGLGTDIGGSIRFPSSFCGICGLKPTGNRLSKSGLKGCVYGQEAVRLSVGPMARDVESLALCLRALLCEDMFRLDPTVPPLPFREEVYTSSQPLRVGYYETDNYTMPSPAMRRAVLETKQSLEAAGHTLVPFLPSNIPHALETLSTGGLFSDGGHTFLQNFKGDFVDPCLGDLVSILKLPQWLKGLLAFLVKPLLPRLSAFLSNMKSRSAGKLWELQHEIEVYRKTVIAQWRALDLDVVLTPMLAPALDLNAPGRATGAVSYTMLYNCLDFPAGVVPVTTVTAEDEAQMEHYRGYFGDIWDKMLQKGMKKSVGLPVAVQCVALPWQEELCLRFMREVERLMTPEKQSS

[2] = target: T2, Rat FAAH-1 (Rattus norvegicus, UniProt P97612); assay: Assay Method 2: rat FAAH-1 assay, 3H-anandamide hydrolysis in homogenate of SK-N-MC cells transfected with rat FAAH
T2 sequence (P97612 1-579): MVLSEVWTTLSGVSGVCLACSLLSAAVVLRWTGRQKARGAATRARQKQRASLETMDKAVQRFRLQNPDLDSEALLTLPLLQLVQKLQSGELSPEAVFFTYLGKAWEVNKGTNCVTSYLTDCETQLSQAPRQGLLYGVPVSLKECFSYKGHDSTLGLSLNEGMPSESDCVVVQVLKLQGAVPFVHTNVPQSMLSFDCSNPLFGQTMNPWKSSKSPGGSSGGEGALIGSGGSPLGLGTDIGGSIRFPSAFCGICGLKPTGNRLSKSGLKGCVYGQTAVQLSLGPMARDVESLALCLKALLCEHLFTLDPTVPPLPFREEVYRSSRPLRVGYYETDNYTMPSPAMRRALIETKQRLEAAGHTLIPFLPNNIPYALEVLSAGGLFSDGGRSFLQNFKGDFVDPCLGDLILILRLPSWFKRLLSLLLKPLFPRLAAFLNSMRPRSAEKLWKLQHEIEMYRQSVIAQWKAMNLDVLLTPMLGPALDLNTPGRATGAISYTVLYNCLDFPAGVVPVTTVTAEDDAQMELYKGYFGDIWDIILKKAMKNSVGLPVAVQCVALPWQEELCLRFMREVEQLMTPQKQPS
Procedure: The assay mixture consisted of 50 μL of the cell homogenate, 10 μL of the test compound, and 40 μL of anandamide [1-^3H-ethanolamine] (^3H-AEA, Perkin-Elmer, 10.3 Ci/mmol), which was added last, for a final tracer concentration of 80 nM. The reaction mixture was incubated at rt for 1 h. During the incubation, 96-well Multiscreen filter plates (catalog number MAFCNOB50; Millipore, Bedford, Mass., USA) were loaded with 25 μL of activated charcoal (Multiscreen column loader, catalog number MACL09625, Millipore) and washed once with 100 μL of MeOH. […] After the 1 h incubation, 60 μL of the reaction mixture were transferred to the charcoal plates, which were then assembled on top of the DYNEX plates using Centrifuge Alignment Frames (catalog number MACF09604, Millipore). The unbound labeled ethanolamine was centrifuged through to the bottom plate (5 min at 2000 rpm), which was preloaded with the scintillant, as described above. The plates were sealed and left at rt for 1 h before counting on a Hewlett Packard TopCount.

[3] = read-out: Assay 1 IC50, Table 2, Comparative Examples, human FAAH

SMILES: OC(CNc1cc(-c2cccc(Cl)c2)ncn1)c1ccccc1 (centres unmarked) [Example 9, 2-{[6-(3-Chlorophenyl)pyrimidin-4-yl]amino}-1-Phenylethanol]
- IC50 [1]: 467 nM

SMILES: O[C@@H](CNc1cc(-c2ccc(C(F)(F)F)c(Cl)c2)ncn1)c1ccc(F)cc1 [Example 62, (1R)-2-({6-[3-Chloro-4-(trifluoromethyl)phenyl]ivrimidin-4-yl}amino)-1-(4-fluorophenyl)ethanol]
- IC50 [1]: 2 nM
- IC50 [2]: 3 nM

SMILES: O[C@@H](CNc1cc(-c2ccc3c(c2)OC(F)(F)O3)ncn1)c1ccccc1 [Example 183, (1R)-2-{[6-(2,2-Difluoro-1,3-benzodioxol-5-yl)pyrimidin-4-yl]amino}-1-phenylethanol]
- IC50 [1]: 36 nM
- IC50 [2]: 89 nM

SMILES: N#Cc1ccc(-c2cc(NC[C@H](O)c3ccccc3)ncn2)cn1 [Example 77, 5-(6-{[(2R)-2-Hydroxy-2-phenylethyl]amino}pyrimidin-4-yl)pyridine-2-carbonitrile]
- IC50 [1]: 1000 nM
- IC50 [2]: 2200 nM

SMILES: O[C@@H](CNc1cc(-c2cc(F)cc(F)c2)ncn1)c1ccccc1 [Example 58, (1R)-2-{[6-(3,5-Difluorophenyl)pyrimidin-4-yl]amino}-1-phenylethanol trifluoroacetic acid salt]
- IC50 [1]: 104 nM
- IC50 [2]: 470 nM

SMILES: C[C@@H](Nc1cc(-c2ccc(OC(F)(F)F)cc2)ncn1)[C@@H](O)c1ccccc1 [Example 150, (1S,2R)-1-Phenyl-2-[(6-{4-[(trifluoromethyl)oxy]phenyl}pyrimidin-4-yl)amino]propan-1-ol]
- IC50 [1]: 1500 nM
- IC50 [2]: 5000 nM

SMILES: O[C@@H](CNc1cc(-c2ccc3c(C(F)(F)F)csc3c2)ncn1)c1ccccc1 [Example 221]
- IC50 [1]: 19 nM
- IC50 [2]: 480 nM

SMILES: O=Cc1ccc(-c2cc(NC[C@H](O)c3ccccc3)ncn2)cc1 [Example 22, 4-(6-{[(2R)-2-Hydroxy-2-phenylethyl]amino}pyrimidin-4-yl)benzaldehyde]
- IC50 [1]: 81 nM
- IC50 [2]: 270 nM

SMILES: Nc1cccc(-c2cc(NCC(O)c3ccccc3)ncn2)c1 (centres unmarked) [CE8, 2-[6-(3-Amino-phenyl)-pyrimidin-4-ylamino]-1-phenyl-ethanol, reference compound]
- IC50 [1, 3]: > 10000 nM

SMILES: Cc1cccc(-c2cc(NCC(O)c3ccccc3)ncn2)c1 (centres unmarked) [Example 148, 2-{[6-(3-Methylphenyl)pyrimidin-4-yl]amino}-1-phenylethanol]
- IC50 [1]: 3000 nM

SMILES: O=S(=O)(NC1CC1)c1ccc(-c2cc(NC[C@H](O)c3ccccc3)ncn2)cc1 [Example 67, N-Cyclopropyl-4-(6-{[(2R)-2-hydroxy-2-phenylethyl]amino}pyrimidin-4-yl)benzenesulfonamide]
- IC50 [1]: 20 nM

SMILES: OC(CNc1cc(-c2ccccc2)ncn1)c1ccccc1 (centres unmarked) [CE3, 1-Phenyl-2-(6-phenyl-pyrimidin-4-ylamino)-ethanol, reference compound]
- IC50 [1, 3]: > 10000 nM

SMILES: O=Cc1cccc(-c2cc(NC[C@H](O)c3ccccc3)ncn2)c1 [Example 23, 3-(6-{[(2R)-2-Hydroxy-2-phenylethyl]amino}pyrimidin-4-yl)benzaldehyde]
- IC50 [1]: 5000 nM

SMILES: OC(CNc1cc(-c2cccc(OC(F)(F)F)c2)ncn1)c1ccccc1 (centres unmarked) [Example 149, 1-Phenyl-2-[(6-{3-[(trifluoromethyl)oxy]phenyl}pyrimidin-4-yl)amino]ethanol]
- IC50 [1]: 412 nM

SMILES: OC(CNc1cc(-c2ccc(Oc3ccccc3)cc2)ncn1)c1ccccc1 (centres unmarked) [Example 13, 1-Phenyl-2-({6-[4-(phenyloxy)phenyl]pyrimidin-4-yl}amino)ethanol]
- IC50 [1]: 35 nM

SMILES: CS(=O)(=O)c1nc(NC[C@H](O)c2ccccc2)cc(-c2ccc(C(F)(F)F)c(Cl)c2)n1 [Example 138, (1R)-2-({6-[3-Chloro-4-(trifluoromethyl)phenyl]-2-(methylsulfonyl)pyrimidin-4-yl}amino)-1-phenylethanol]
- IC50 [1]: 371 nM

SMILES: C[S+]([O-])c1nc(NC[C@H](O)c2ccccc2)cc(-c2ccc(C(F)(F)F)c(Cl)c2)n1 (stereo partly drawn) [Example 139, (1R)-2-({6-[3-Chloro-4-(trifluoromethyl)phenyl]-2-(methylsulfinyl)pyrimidin-4-yl}amino)-1-phenylethanol]
- IC50 [1]: 2000 nM

SMILES: Cc1cc(-c2cc(NC[C@H](O)c3ccccc3)ncn2)cnc1F [Example 75, (1R)-2-{[6-(6-Fluoro-5-methylpyridin-3-yl)pyrimidin-4-yl]amino}-1-phenylethanol]
- IC50 [2]: > 10000 nM

SMILES: Nc1cccc(-c2cc(NCC(O)c3ccccc3)ncn2)c1 (centres unmarked) [Example 240, 2-[6-(3-Amino-phenyl)-pyrimidin-4-ylamino]-1-phenyl-ethanol]
- IC50 [1]: > 10000 nM

SMILES: COc1ccc(-c2cc(NCC(O)c3ccccc3)ncn2)cc1OC (centres unmarked) [Example 229, 2-[6-(3,4-Dimethoxy-phenyl)-pyrimidin-4-ylamino]-1-phenyl-ethanol]
- IC50 [1]: 408 nM

SMILES: OC(CNc1cc(-c2ccccc2)ncn1)c1ccccc1 (centres unmarked) [Example 243, 1-Phenyl-2-(6-phenyl-pyrimidin-4-ylamino)-ethanol]
- IC50 [1]: > 10000 nM

SMILES: Cc1cc(-c2cc(NC[C@H](O)c3ccccc3)ncn2)cc(C)c1OC(C)C [Example 52, (1R)-2-({6-[3,5-Dimethyl-4-(1-methylethoxy)phenyl]pyrimidin-4-yl}amino)-1-phenylethanol trifluoroacetic acid salt]
- IC50 [1]: 1400 nM

SMILES: O[C@@H](CNc1cc(-c2ccc(C(F)(F)F)c(Cl)c2)nc(N2CCC2)n1)c1ccccc1 [Example 161, (1R)-2-({2-Azetidin-1-yl-6-[3-chloro-4-(trifluoromethyl)phenyl]pyrimidin-4-yl}amino)-1-Phenylethanol trifluoroacetic acid salt]
- IC50 [2]: 580 nM

SMILES: COc1cc(OC(F)(F)F)ccc1-c1cc(NC[C@H](O)c2ccccc2)ncn1 [Example 153, (1R)-2-({6-[2-Methoxy-4-(trifluoromethoxy)phenyl]pyrimidin-4-yl}amino)-1-phenylethanol trifluoroacetic acid salt]
- IC50 [1]: 303 nM

SMILES: Oc1ccc(C(O)CNc2cc(-c3ccc(OC(F)(F)F)cc3)ncn2)cc1 (centres unmarked) [Example 110, 4-{1-Hydroxy-2-[(6-{4-[(trifluoromethyl)oxy]phenyl}pyrimidin-4-yl)amino]ethyl}phenol]
- IC50 [1]: 5000 nM

SMILES: CCCCOc1ccc(-c2cc(NC[C@H](O)c3ccccc3)ncn2)cc1 [Example 34, (1R)-2-{[6-(4-Butoxyphenyl)pyrimidin-4-yl]amino}-1-phenylethanol trifluoroacetic acid salt]
- IC50 [1]: 500 nM

SMILES: O[C@@H](CNc1cc(-c2cccc(OCC(F)(F)F)c2)ncn1)c1ccccc1 [Example 25, (1R)-1-Phenyl-2-[(6-{3-[(2,2,2-trifluoroethyl)oxy]phenyl}pyrimidin-4-yl)amino]ethanol]
- IC50 [1]: 390 nM

SMILES: COc1ccc(-c2cc(NCC(O)c3ccccc3)ncn2)cc1 (centres unmarked) [Example 147, 2-({6-[4-(Methyloxy)phenyl]pyrimidin-4-yl}amino)-1-phenylethanol]
- IC50 [1]: 205 nM

SMILES: CC(O)(CNc1cc(-c2ccc(C(F)(F)F)c(Cl)c2)ncn1)c1ccccc1 (centres unmarked) [Example 166, 1-({6-[3-Chloro-4-(trifluoromethyl)phenyl]pyrimidin-4-yl}amino)-2-Phenylpropan-2-ol]
- IC50 [1]: 3000 nM

SMILES: CCCOc1cccc(-c2cc(NC[C@H](O)c3ccccc3)ncn2)c1 [Example 98, (1R)-1-Phenyl-2-{[6-(3-propoxyphenyl)pyrimidin-4-yl]amino}ethanol]
- IC50 [1]: 850 nM

SMILES: CCOc1ccc(-c2cc(NC[C@H](O)c3ccccc3)ncn2)c(C)c1 [Example 154, (1R)-2-{[6-(4-Ethoxy-2-methylphenyl)pyrimidin-4-yl]amino}-1-phenylethanol trifluoroacetic acid salt]
- IC50 [1]: 65 nM

SMILES: CCOc1cccc(-c2cc(NC[C@H](O)c3ccccc3)ncn2)c1 [Example 97, (1R)-2-{[6-(3-Ethoxyphenyl)pyrimidin-4-yl]amino}-1-phenylethanol]
- IC50 [1]: 580 nM

SMILES: OC(CNc1cc(-c2ccc(OC(F)(F)F)cc2)ncn1)c1ccccn1 (centres unmarked) [Example 123, 1-Pyridin-2-yl-2-[(6-{4-[(trifluoromethyl)oxy]phenyl}pyrimidin-4-yl)amino]ethanol]
- IC50 [1]: 700 nM

SMILES: O[C@@H](CNc1cc(-c2cnn(Cc3ccccc3)c2)ncn1)c1ccccc1 [Example 74, (1R)-2-{[6-(1-Benzyl-1H-pyrazol-4-yl)pyrimidin-4-yl]amino}-1-phenylethanol]
- IC50 [1]: 101 nM

Source: patent US8598202B2, “Aryl-hydroxyethylamino-pyrimidines and triazines as modulators of fatty acid amide hydrolase” (Janssen Pharmaceutica NV, priority 2008, dated 2013)
